Results published in ChEMBL document CHEMBL4196157, “Inhibition of Herpes Simplex Virus-1 Entry into Human Cells by Nonsaccharide Glycosaminoglycan Mimetics” (ACS Med Chem Lett, 2018).
Active and inactive are the calls of the source. The calls are words filed in the database; no cut-off is given here.

What was measured:
Human alphaherpesvirus 1 [1] = experiment: (§1) Binding affinity to recombinant HSV1 glycoprotein D (21 to 339 residues) assessed as change in intrinsic tryptophan fluorescence by spectrofluorimetric method
[2] = as §1; design: species or system Human alphaherpesvirus 1
[3] = Binding affinity to HSV1 glycoprotein D; design: species or system Human alphaherpesvirus 1
Human alphaherpesvirus 1 [4] = experiment: Antiviral activity against Herpes simplex virus 1 KOS infected in African green monkey Vero cells assessed as inhibition of plaque formation at 5 ug treated 1 hr prior to viral infection followed by compound washout and subsequent compound addition measured after 72 hrs by Giemsa staining based assay; assay type: functional, organism-based

Row | SMILES | %max (Human alphaherpesvirus 1 [1]) | Kd [2] | Kd [3] | inhibition (Human alphaherpesvirus 1 [4])
1 | CCOC(=O)c1c(C)oc2cc(OCc3ccccc3)c(OCCCOc3cc(OS(=O)(=O)O)cc4oc(-c5ccc(OS(=O)(=O)O)cc5)cc(=O)c34)cc12 | -157% | 780 nM |  | 
2 | O=C(O[C@@H]1[C@@H](OC(=O)c2cc(OS(=O)(=O)O)cc(OS(=O)(=O)O)c2)[C@H](OC(=O)c2cc(OS(=O)(=O)O)cc(OS(=O)(=O)O)c2)[C@@H](OC(=O)c2ccc(OS(=O)(=O)O)cc2OS(=O)(=O)O)[C@H](OC(=O)c2cc(OS(=O)(=O)O)cc(OS(=O)(=O)O)c2)[C@H]1OC(=O)c1cc(OS(=O)(=O)O)cc(OS(=O)(=O)O)c1)c1cc(OS(=O)(=O)O)cc(OS(=O)(=O)O)c1 | 53% | 8 nM |  | 
3 | O=C(O)C1=C[C@H](O)[C@@H](OS(=O)(=O)O)[C@H](O[C@H]2[C@H](O)[C@@H](NS(=O)(=O)O)[C@@H](O[C@H]3[C@H](O)[C@@H](OS(=O)(=O)O)[C@H](O[C@H]4[C@H](O)[C@@H](NS(=O)(=O)O)[C@@H](O[C@H]5[C@H](O)[C@@H](OS(=O)(=O)O)[C@H](O[C@H]6[C@H](OS(=O)(=O)O)[C@@H](NS(=O)(=O)O)[C@@H](O[C@H]7[C@H](O)[C@@H](OS(=O)(=O)O)[C@H](O[C@H]8[C@H](O)[C@@H](NS(=O)(=O)O)[C@@H](O)O[C@@H]8COS(=O)(=O)O)O[C@H]7C(=O)O)O[C@@H]6COS(=O)(=O)O)O[C@H]5C(=O)O)O[C@@H]4COS(=O)(=O)O)O[C@H]3C(=O)O)O[C@@H]2COS(=O)(=O)O)O1 |  |  | 18000 nM | 
4 | Cc1cc(Oc2cc3c(=O)c(OS(=O)(=O)O)c(-c4ccc(OS(=O)(=O)O)c(OS(=O)(=O)O)c4)oc3cc2OS(=O)(=O)O)c(C)cc1COc1cc(OS(=O)(=O)O)cc2oc(-c3ccc(OS(=O)(=O)O)c(OS(=O)(=O)O)c3)c(OS(=O)(=O)O)c(=O)c12 | -82% | 22 nM |  | 
5 | CO[C@H]1O[C@H](COS(=O)(=O)O)[C@@H](O[C@@H]2O[C@@H](C(=O)O)[C@@H](O[C@H]3O[C@H](COS(=O)(=O)O)[C@@H](O[C@@H]4O[C@H](C(=O)O)[C@@H](O[C@H]5O[C@H](COS(=O)(=O)O)[C@@H](O)[C@H](O)[C@H]5NS(=O)(=O)O)[C@H](O)[C@H]4O)[C@H](OS(=O)(=O)O)[C@H]3NS(=O)(=O)O)[C@H](O)[C@H]2OS(=O)(=O)O)[C@H](O)[C@H]1NS(=O)(=O)O [FONDAPARINUX SODIUM] | -85% | 500 nM |  | 
6 | CCOC(=O)c1c(C)oc2cc(OCc3cccc(OS(=O)(=O)O)c3)c(OCc3oc4cc(OC)c(OS(=O)(=O)O)cc4c3C(=O)OCC)cc12 | -112% | 2220 nM |  | 
7 | O=S(=O)(O)OC[C@H]1O[C@@](COS(=O)(=O)O)(O[C@@H]2O[C@H](COS(=O)(=O)O)[C@@H](OS(=O)(=O)O)[C@H](OS(=O)(=O)O)[C@H]2OS(=O)(=O)O)[C@@H](OS(=O)(=O)O)[C@@H]1OS(=O)(=O)O | -52% | 150 nM |  | 
8 | CC1OC[C@H]2O[C@H](OC(=O)c3cc(OS(=O)(=O)O)cc(OS(=O)(=O)O)c3)[C@H](OC(=O)c3cc(OS(=O)(=O)O)cc(OS(=O)(=O)O)c3)[C@@H](OC(=O)c3cc(OS(=O)(=O)O)cc(OS(=O)(=O)O)c3)[C@@H]2O1 (stereo partly drawn) | 87% | 26 nM |  | 
9 | Nc1nc2c(ncn2COCCO)c(=O)[nH]1 |  |  |  | Active
10 | O=C(OC1[C@@H](OC(=O)c2cc(OS(=O)(=O)O)cc(OS(=O)(=O)O)c2)[C@@H](OC(=O)c2ccc(OS(=O)(=O)O)cc2OS(=O)(=O)O)C(OC(=O)c2cc(OS(=O)(=O)O)cc(OS(=O)(=O)O)c2)[C@H](OC(=O)c2cc(OS(=O)(=O)O)cc(OS(=O)(=O)O)c2)[C@H]1OC(=O)c1cc(OS(=O)(=O)O)cc(OS(=O)(=O)O)c1)c1cc(OS(=O)(=O)O)cc(OS(=O)(=O)O)c1 (single isomer, unassigned) | 328% | 112 nM |  | 
